# Test results as given in paper PMC9535023, “Inhibition of phospholipase D1 induces immunogenic cell death and potentiates cancer immunotherapy in colorectal cancer” (Experimental & Molecular Medicine, 2022).
# Experiments:
# HEK293 cells = test: TCF transactivation in HEK293 cells; format: cell-based; settings: Wnt3a 150 ng/mL
# CRC cells [1] = test: Cell migration and invasion assay; format: cell-based
# Method: For the cell migration assay, the cells were added to an 8 μm pore transwell polycarbonate chamber (SPL Life Science). After 24 h of incubation, the number of cells that migrated through the membrane into the lower chamber was counted. For the cell invasion assay, Matrigel (dilution at 1:5; BD Biosciences) was added to the Transwell chambers and incubated for 5 h. The cells were then seeded; after 24 h of incubation, the invaded cells on the bottom of the membrane were fixed with 10% formalin for 20 min and stained with 0.1% crystal violet for 3 h. The extent of invasion was expressed as the average number of cells per microscopic field.
# DLD1 cells [2] = test: Apoptosis assay (annexin V flow cytometry), DLD1; format: cell-based
# Method: (§1) For cell cycle analysis, the cells were treated with Α3373 or 5-FU. The cells were labeled with 10 μΜ bromodeoxyuridine (BrdU) for 2 h. Subsequently, the cells were stained with 7-aminoactinomycin D (7-AAD, Invitrogen) and a fluorescein isothiocyanate (FITC)-conjugated anti-BrdU antibody (Invitrogen). Apoptotic cells were detected using an Annexin V-FITC Apoptosis Detection Kit (BD Biosciences). The cells were analyzed using BD FACSAria III (BD Biosciences), and data analysis was performed using FlowJo v10.0 (BD Biosciences).
# MC38-GFP-Luc cells = test: Colon cancer orthotopic model (MC38-GFP-Luc in cecum); format: in vivo, mouse
# Method: GFP-luciferase expressing MC38 murine CRC (MC38-GFP-Luc) cells were cocultured with bone marrow-derived macrophages (BMDMs). After 48 h, the macrophages were isolated and incubated with naïve T cells from the splenocytes of wild-type mice to generate CD8^+ T cells. The activated CD8^+ T cells were sorted using BD FACSAria III, added to wells containing MC38-GFP-Luc cells and titrated to effector cells (E) and the target cell (T) ratio (E/T ratio). Four hours later, CD8^+ T-cell-mediated killing of MC38-GFP-Luc cancer cells in each well was monitored using a luciferase-based bioluminescence imaging system.
# (§2) Supplementary materials and methods […]
# A colon cancer orthotropic model was established using 6- weeks-old C57BL/6 male mice.
# Mice were administered a single IP injection of 2,2,2-Tribromoethanol (Avertin, Sigma - aldrich), an an esthetic . T he abdomen was shaved and the surgi cal site was draped in a sterile […]
# manner. The incision was extended to 2–3 cm, and the cecum was exposed. 2 × 10^5 MC38-GFP-Luciferas e cells were suspended in 50 µL PBS and injected into the cecum. Seven days after cell injection, 10 mg/kg A3373 was orally administered to the mice daily for 4 weeks. […]
# All mice wer e housed at 2 5°C under a 12:12 hou rs light/dark cycle. All animal procedu res were performed in accordance with the institutional guidelines for animal research and were approved by the Institutional Animal Care and Use Committee of Yonsei University (IACUC- […]
# In a colon cancer orthotropic model, tumor-infiltrating lymphocytes (TILs) were isolated from the tumor tissue 30 days after cell injection. Tumors wer e en zymatically di ssociated in RPMI media containing 10% FBS, 200 mg/mL collagenase IV (Sigma- Aldrich), 20 mg/mL hyaluronidase (Sigma-Al drich), and 20 mg/mL DNase I (Sigma Aldrich) at 37 ℃ with stirring.
# After 20 minutes of incubation, 0.1 M EDTA was added to prevent clumping. Cells were filtered through a 40 µm nylon mesh, single-cell suspensions were counted and used for the experiments. Finally, the TILs were resuspended in PBS containing 1% FBS. For the distribution of immune cells, anti- mouse CD45 microbeads were us ed according to the manufacturer’s instructions (Miltenyi Biotech). Isolated tumor cells were cultured for one passage to change the immunocompromised phenotype and assessed using flow cytometry.
# Splenocytes were isolat ed from mouse spleens, seeded at 5× 10^6 cells, and stimulated with 10 µg/mL MC38 GFP-Luciferase cell lysates. For intracellular cytokine staining, cells were […]
# CRC cells [3] = test: Measurement of HMGB1 release (ELISA); format: cell-based
# Method: (§3) For the quantitative determination of extracellular ATP, the cells were treated with Α3373. Extracellular release of ATP was assessed using the ENLITEN ATP Assay kit (Promega) according to the manufacturer’s instructions. For the HMGB1 level measurement, the supernatants of the cells were prepared by removing insoluble materials by centrifugation at 10,000 × g for 3 min at 4 °C. The levels of HMGB1 were measured using an HMGB1 detection kit (Chondrex) according to the manufacturer’s instructions.
# CRC cells [4] = test: Measurement of extracellular ATP; format: cell-based
# Method: as §3
# DLD1 cells [5] = test: Cell cycle analysis (BrdU/7-AAD flow cytometry), DLD1; format: cell-based
# Method: as §1
# DLD1 cells [6] = test: Sphere formation assay; format: cell-based; settings: limiting dilution assays
# Method: DLD1 cells were cultured in DMEM/F-12 with epidermal growth factor (20 ng/mL), basic fibroblast growth factor (20 ng/mL), and B27 supplements in noncoated dishes. For serial passaging, the sphere cells were dissociated into single cells with Accutase (Invitrogen) once every 4–7 days and incubated. After the secondary generation, the DLD1 sphere cells were used for the experiments. […] The cells were fixed with 4% paraformaldehyde, and sphere formation was calculated from 10 positions in each well by an Olympus BX53 microscope and cellSens image acquisition software (Olympus).
# [7] = system: 21 purified protein kinases; test: Kinase panel assay (KinaseProfiler); format: biochemical; settings: 1 µM A3373
# Method: as §2
# In vitro kinase activity assays of A3373 were perfo rmed using the 21 kinase KinaseProfilerTM
# (eurofins). Kinase activity was determined aft er in cubation with 1 µM A3373, acco rding to the
# KinaseProfilerTM Service standard assay protocol s. […]
# [8] = mesenteric lymph nodes, vs vehicle
smiles,measurement,setting,value
O=C(Nc1cc(C(F)(F)F)cc(C(F)(F)F)c1)c1cc2cc(F)ccc2[nH]1 [Compound A3373],Wnt3a- and β-catenin-induced TCF transactivation,HEK293 cells,significantly decreased Wnt3a- and β-catenin-induced TCF transactivation
same,Wnt3a-induced migration and invasion,CRC cells [1],significantly suppressed Wnt3a-induced migration and invasion
same,"apoptosis of CRC cells, in words",DLD1 cells [2],significantly promoted the apoptosis of CRC cells alone
same,active caspase-3 and Ki67 in tumor tissues (IHC),MC38-GFP-Luc cells; 10 mg/kg every day for 4 weeks,increased levels of active caspase-3 and reduced levels of Ki67
same,mortality and tumor weight,"MC38-GFP-Luc cells; 10 mg/kg every day for 4 weeks, vs vehicle",significant reduction in mortality and tumor weight
same,"CD8+ T-cell-mediated killing, luciferase activity","MC38-GFP-Luc cells; MC38-GFP-Luc cells derived from treated mice, vs vehicle",significantly lower luciferase activity
same,"population of GFP+CD11b+ BMDMs, in words",MC38-GFP-Luc cells; coculture with MC38-GFP-Luc cells isolated from tumors,significantly increased the population of GFP^+CD11b^+ BMDMs
same,CD107a+ granzyme B+ and FasL+IFNγ+ CD8+ T cells,"MC38-GFP-Luc cells; mesenteric lymph nodes restimulated with MC38-GFP-Luc lysates, vs vehicle",increased population of CD107a^+ granzyme B^+ and FasL^+IFNγ^+ CD8^+ T cells
same,Foxp3+ cells in the CD4+ TCRβ+ gate,MC38-GFP-Luc cells; [8],decreased population of Foxp3^+ cells
same,IFNγ+ and IL17a+ in CD4+ T cells,MC38-GFP-Luc cells; [8],significantly increased the population of IFNγ^+ and IL17a^+ in CD4^+ T cells
same,"release of HMGB1, in words",CRC cells [3],increased the release of HMGB1 in a dose-dependent manner
same,"extracellular ATP, in words",CRC cells [4],significantly increased extracellular ATP
same,"cell cycle / proliferation of CRC cells, in words",DLD1 cells [5],significantly decreased the proliferation of CRC cells
same,sphere-forming capacity,DLD1 cells [6],significantly decreased the sphere-forming capacity
same,effect on activity of 21 purified protein kinases,[7],no effect
